These results are taken from patent US8735445B2, “Inhibitors of 15-hydroxyprostaglandin dehydrogenase for stimulating pigmentation of the skin or skin appendages” (L'Oreal, priority 2003, dated 2014).

Experiment [1] addresses T1, PGF synthase (PGFS) (Homo sapiens, UniProt P42330).
T1 sequence (P42330 1-323): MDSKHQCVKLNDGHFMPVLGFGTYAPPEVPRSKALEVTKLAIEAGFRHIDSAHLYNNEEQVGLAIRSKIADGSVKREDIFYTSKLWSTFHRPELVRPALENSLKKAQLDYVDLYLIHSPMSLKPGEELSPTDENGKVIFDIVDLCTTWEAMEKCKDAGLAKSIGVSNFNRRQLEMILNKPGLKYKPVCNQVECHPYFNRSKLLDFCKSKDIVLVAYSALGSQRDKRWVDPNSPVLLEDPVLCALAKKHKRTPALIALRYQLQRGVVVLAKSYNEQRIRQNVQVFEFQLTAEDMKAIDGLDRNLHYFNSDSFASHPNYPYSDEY
The experiment is described as follows: Test on PGFS (PGF synthase; phenanthrenequinone/NADPH, 340 nm). In kind it is biochemical. The protocol:
The PGF synthase enzyme is obtained as described in FR-A-02/05067, at a concentration of 0.5 mg/ml, in suspension in an appropriate medium, and is blocked at −80° C. For the needs of the test, this suspension is thawed and stored in ice.
Moreover, a 100 mM Tris buffer, pH=6.5, containing 20 μM of 9.10-phenanthrenequinone* (P2896, Sigma-Aldrich, L′ isle D'Abeau Chesne, BP 701, 38297, Saint Quentin Fallavier) and 100 μM of β-NAPDH(N1630, Sigma-Aldrich, L'isle D'Abeau Chesne, BP 701, 38297, Saint Quentin Fallavier), is prepared in a brown bottle (exclusion of light).
*A stock solution having a titer of 1 mM is prepared in absolute ethanol, brought to 40° C.; the flask is placed in an ultrasound tank so as to facilitate solubilization of the product.
0.950 ml of this buffer (brought beforehand to 37° C.) is introduced into the cuvette of a spectrophotometer (Perkin-Elmer, Lambda 2) thermostatically controlled at 37° C., the measuring wavelength of which is set at 340 nm. 0.05 ml of enzymatic suspension at 37° C. is introduced into the cuvette concomitantly with the recording (corresponding to a decrease in optical density at 340 nm). The maximum reaction rate is recorded. […]

The target in experiment [2] is T2, 15-PGDH (Homo sapiens, UniProt P15428).
T2 construct: GST (from vector pGEX-4T3); made in house; host or cells: E. coli BL21 DE3plys
T2 sequence (P15428 1-266): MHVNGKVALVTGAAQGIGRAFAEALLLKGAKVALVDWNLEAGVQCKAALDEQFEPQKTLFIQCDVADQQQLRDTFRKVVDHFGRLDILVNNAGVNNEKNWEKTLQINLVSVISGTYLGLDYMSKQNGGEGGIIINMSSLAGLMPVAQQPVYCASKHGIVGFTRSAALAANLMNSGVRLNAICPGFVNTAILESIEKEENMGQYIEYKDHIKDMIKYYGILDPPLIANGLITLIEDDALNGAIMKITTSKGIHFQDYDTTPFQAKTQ
The experiment in a line: 15-PGDH test (spectrophotometric, NADH at 340 nm, PGE2 substrate). The class given is biochemical. The note with it: Example I-5. On the procedure:
The enzyme obtained is at a concentration of 0.3 mg/ml and is blocked at −80° C. This suspension is thawed and stored in ice.
A 100 mM Tris buffer, pH—7.4, containing 0.1 mM of dithiothreitol (D5545, Sigma-Aldrich, L'isle D'Abeau Chesne, BP 701, 38297, Saint Quentin Fallavier), 1.5 mM of 13-NAD (N6522, Sigma-Aldrich, L'isle D'Abeau Chesne, BP 701, 38297, Saint Quentin Fallavier) and 50 μM of prostaglandin E2 (P4172, Sigma-Aldrich, L'isle D'Abeau Chesne, BP 701, 38297, Saint Quentin Fallavier) is prepared.
0.965 ml of this buffer (brought to 37° C. beforehand) is placed in the cuvette of a spectrophotomer (Perkin-Elmer, Lambda 2) thermostated at 37° C., the measuring wavelength of which is set at 340 nm. 0.035 ml of enzyme suspension at 37° C. is placed in the cuvette concomitantly with the recording (increase in optical density at 340 nm).
The maximum reaction rate is recorded.
The assay values (molecules) are compared with the control value (without molecule), and the results are expressed as % of the control value.
The assay is carried out as described in example 4a.
The methodology is that described in example 1-5.

The subject of experiment [3] is melanocyte line MeWo. The experiment in a line: Protection of PGF2α in melanocyte line MeWo. The note with it: 4 hours, MeWo melanocytes. In kind it is cell-based. The protocol:
An ampoule of Mewo melanocytes (American type cell collection, HTB-65) is amplified (75 cm^2 flask, Costar), in DMEM medium (Gibco)+10% fetal calf serum+2 mM of L-glutamine+1% of antibiotics (Gibco). After confluence, these cells (48 hours to 72 hours) are resuspended in this same culture medium, after the action of trypsin (according to a procedure conventionally used in cell culture), in a proportion of 600 000 cells per ml.
200 μl of this suspension are introduced into n times 6 wells (n being the total number of assays, i.e., x molecules at 2 concentrations) of a 96-well plate (Costar). The plate is placed in an incubator at 37° C. under 5% CO2.
Preparation, in DMSO of the 1000× stock solutions of the active agents to be evaluated (i.e., 5 and 25 mM).
Removal of the supernatants from the cultures previously prepared (96-well plate), and rinsing with 100 μl/well of DMEM medium+additives (see above description) preheated to 37° C.
Introduction of 100 μl/well of DMEM medium (+additives) containing 0.1 μl of DMSO (control) or 0.1 μl of the stock solution of the active agent to be evaluated (there are 6 assay wells per molecule and per concentration).
Practically 1 ml of solution is prepared for each of the active agents (and per concentration) to be tested, therefore 1 ml of medium+1 μl of DMSO (control) or of 1000× stock solution.
The plate is again placed in an incubator at 37° C. under 5% CO2 for 4 hours, and then a PGF2α assay is carried out on 50 μl of each of the supernatants (of the various assays) by means of an immunoenzymatic kit (according to the supplier's recommendations (PGF2α, EIA kit, ref. 516011, Cayman)).
Results (as % of the amount of PGF2α measured under the control conditions): […]

Read-outs that look alike come from different tables or passages of the source. Bounds are passed on as bounds.

With `O=C1NC(=O)/C(=C/c2ccc(-c3ccc(C(=O)O)cc3)o2)S1` [Compound 1, 4-{5-[(2,4-dioxo-1,3-thiazolidin-5-ylidene)methyl]-2-furyl}benzoic acid], the IC50 is 4 µM in experiment [1] (Example I-5, read-out: Inhibition of PGFS IC50fs) and 0.3 µM in experiment [2] (read-out: Inhibition 15-PGDH IC50dh).

Regarding `COc1ccccc1/C=C(\C#N)c1nn(-c2ccccc2)c(N)c1C#N` [Compound 9 of example II], in experiment [1] (Example II-2, read-out: Inhibition of PGF synthase IC50fs), the IC50 is > 50 µM.

Regarding `COC(=O)c1cc(/N=N/c2ccc(O)c(CC(=O)O)c2)cc(C(=O)OC)c1` [PhCL28A, reference compound], the “% of the amount of PGF2α measured under the control conditions” value in experiment [3] (5 μM) is recorded as “+43%”; in experiment [3] (25 μM) it was “+147%”.

For `O=C1NC(=O)/C(=C/c2ccc(-c3ccc(C(=O)O)cc3)o2)S1` [Compound 1a of example I], the “% of the amount of PGF2α measured under the control conditions” value is “+67%” in experiment [3] (5 μM) and “+51%” in experiment [3] (25 μM).

As to `O=C1NC(=O)C(=Cc2ccc(-c3ccc(C(=O)O)cc3)o2)S1` [Compound 1 of example I, 4-{5-[(2,4-dioxo-1,3-thiazolidin-5-ylidene)methyl]-2-furyl}benzoic acid], in experiment [2] (selectivity for 15-PGDH with respect to PGFS), the IC50fs/IC50dh ratio result is “greater than 13”.
